Measured values published in patent US8957078B2, “Compounds useful as inhibitors of ATR kinase” (Vertex Pharmaceuticals Incorporated, priority 2013, dated 2015).

Tests used:
[1] = molecular target: T1, ATR kinase (full-length ATR) (Homo sapiens, UniProt Q13535); experiment: ATR Inhibition Assay (radioactive-phosphate incorporation); format: biochemical; settings: Ki(app); 5 nM full-length ATR, 10 μM ATP, 800 μM target peptide, 25° C.
T1 construct: in the presence of 5 nM full-length ATR
Procedure: Compounds were screened for their ability to inhibit ATR kinase using a radioactive-phosphate incorporation assay. Assays were carried out in a mixture of 50 mM Tris/HCl (pH 7.5), 10 mM MgCl2 and 1 mM DTT. Final substrate concentrations were 10 μM [γ-33P]ATP (3 mCi 33P ATP/mmol ATP, Perkin Elmer) and 800 μM target peptide (ASELPASQPQPFSAKKK (SEQ. ID NO: 1)).
Assays were carried out at 25° C. in the presence of 5 nM full-length ATR. An assay stock buffer solution was prepared containing all of the reagents listed above, with the exception of ATP and the test compound of interest. 13.5 μL of the stock solution was placed in a 96 well plate followed by addition of 2 μL of DMSO stock containing serial dilutions of the test compound (typically starting from a final concentration of 15 μM with 3-fold serial dilutions) in duplicate (final DMSO concentration 7%). The plate was pre-incubated for 10 minutes at 25° C. and the reaction initiated by addition of 15 μL [γ-33P]ATP (final concentration 10 μM).
The reaction was stopped after […] by the addition of 30 μL 0.1M phosphoric acid containing 2 mM ATP. A multiscreen phosphocellulose filter 96-well plate (Millipore, Cat no. MAPHN0B50) was pretreated with 100 μL 0.2M phosphoric acid prior to the addition of 45 μL of the stopped assay mixture. The plate was washed with 5×200 μL 0.2M phosphoric acid. After drying, 100 μL Optiphase ‘SuperMix’ liquid scintillation cocktail (Perkin Elmer) was added to the well prior to scintillation counting (1450 Microbeta Liquid Scintillation Counter, Wallac).
After removing mean background values for all of the data points, Ki(app) data were calculated from non-linear regression analysis of the initial rate data using the Prism software package (GraphPad Prism version 3.0cx for Macintosh, GraphPad Software, San Diego Calif., USA).

[2] = test system: HCT116 colorectal cancer cells; experiment: Cisplatin Sensitization Assay (96 h cell viability MTS); format: cell-based; settings: concentration of compound required to reduce the IC50 of Cisplatin alone by at least 3-fold; HCT116, 96 h MTS
Procedure: Compounds can be screened for their ability to sensitize HCT116 colorectal cancer cells to Cisplatin using a 96 h cell viability (MTS) assay. […] Compounds and Cisplatin are then both added simultaneously to the cell media in 2-fold serial dilutions from a top final concentration of 10 μM as a full matrix of concentrations in a final cell volume of 200 μl, and the cells are then incubated at 37° C. in 5% CO2. After 96 h, 40 μl of MTS reagent (Promega G358a) is added to each well and the cells are incubated for 1 h at 37° C. in 5% CO2. Finally, absorbance is measured at 490 nm using a SpectraMax Plus 384 reader (Molecular Devices) and the concentration of compound required to reduce the IC50 of Cisplatin alone by at least 3-fold (to 1 decimal place) can be reported.

T1 sequence (Q13535 whole entry): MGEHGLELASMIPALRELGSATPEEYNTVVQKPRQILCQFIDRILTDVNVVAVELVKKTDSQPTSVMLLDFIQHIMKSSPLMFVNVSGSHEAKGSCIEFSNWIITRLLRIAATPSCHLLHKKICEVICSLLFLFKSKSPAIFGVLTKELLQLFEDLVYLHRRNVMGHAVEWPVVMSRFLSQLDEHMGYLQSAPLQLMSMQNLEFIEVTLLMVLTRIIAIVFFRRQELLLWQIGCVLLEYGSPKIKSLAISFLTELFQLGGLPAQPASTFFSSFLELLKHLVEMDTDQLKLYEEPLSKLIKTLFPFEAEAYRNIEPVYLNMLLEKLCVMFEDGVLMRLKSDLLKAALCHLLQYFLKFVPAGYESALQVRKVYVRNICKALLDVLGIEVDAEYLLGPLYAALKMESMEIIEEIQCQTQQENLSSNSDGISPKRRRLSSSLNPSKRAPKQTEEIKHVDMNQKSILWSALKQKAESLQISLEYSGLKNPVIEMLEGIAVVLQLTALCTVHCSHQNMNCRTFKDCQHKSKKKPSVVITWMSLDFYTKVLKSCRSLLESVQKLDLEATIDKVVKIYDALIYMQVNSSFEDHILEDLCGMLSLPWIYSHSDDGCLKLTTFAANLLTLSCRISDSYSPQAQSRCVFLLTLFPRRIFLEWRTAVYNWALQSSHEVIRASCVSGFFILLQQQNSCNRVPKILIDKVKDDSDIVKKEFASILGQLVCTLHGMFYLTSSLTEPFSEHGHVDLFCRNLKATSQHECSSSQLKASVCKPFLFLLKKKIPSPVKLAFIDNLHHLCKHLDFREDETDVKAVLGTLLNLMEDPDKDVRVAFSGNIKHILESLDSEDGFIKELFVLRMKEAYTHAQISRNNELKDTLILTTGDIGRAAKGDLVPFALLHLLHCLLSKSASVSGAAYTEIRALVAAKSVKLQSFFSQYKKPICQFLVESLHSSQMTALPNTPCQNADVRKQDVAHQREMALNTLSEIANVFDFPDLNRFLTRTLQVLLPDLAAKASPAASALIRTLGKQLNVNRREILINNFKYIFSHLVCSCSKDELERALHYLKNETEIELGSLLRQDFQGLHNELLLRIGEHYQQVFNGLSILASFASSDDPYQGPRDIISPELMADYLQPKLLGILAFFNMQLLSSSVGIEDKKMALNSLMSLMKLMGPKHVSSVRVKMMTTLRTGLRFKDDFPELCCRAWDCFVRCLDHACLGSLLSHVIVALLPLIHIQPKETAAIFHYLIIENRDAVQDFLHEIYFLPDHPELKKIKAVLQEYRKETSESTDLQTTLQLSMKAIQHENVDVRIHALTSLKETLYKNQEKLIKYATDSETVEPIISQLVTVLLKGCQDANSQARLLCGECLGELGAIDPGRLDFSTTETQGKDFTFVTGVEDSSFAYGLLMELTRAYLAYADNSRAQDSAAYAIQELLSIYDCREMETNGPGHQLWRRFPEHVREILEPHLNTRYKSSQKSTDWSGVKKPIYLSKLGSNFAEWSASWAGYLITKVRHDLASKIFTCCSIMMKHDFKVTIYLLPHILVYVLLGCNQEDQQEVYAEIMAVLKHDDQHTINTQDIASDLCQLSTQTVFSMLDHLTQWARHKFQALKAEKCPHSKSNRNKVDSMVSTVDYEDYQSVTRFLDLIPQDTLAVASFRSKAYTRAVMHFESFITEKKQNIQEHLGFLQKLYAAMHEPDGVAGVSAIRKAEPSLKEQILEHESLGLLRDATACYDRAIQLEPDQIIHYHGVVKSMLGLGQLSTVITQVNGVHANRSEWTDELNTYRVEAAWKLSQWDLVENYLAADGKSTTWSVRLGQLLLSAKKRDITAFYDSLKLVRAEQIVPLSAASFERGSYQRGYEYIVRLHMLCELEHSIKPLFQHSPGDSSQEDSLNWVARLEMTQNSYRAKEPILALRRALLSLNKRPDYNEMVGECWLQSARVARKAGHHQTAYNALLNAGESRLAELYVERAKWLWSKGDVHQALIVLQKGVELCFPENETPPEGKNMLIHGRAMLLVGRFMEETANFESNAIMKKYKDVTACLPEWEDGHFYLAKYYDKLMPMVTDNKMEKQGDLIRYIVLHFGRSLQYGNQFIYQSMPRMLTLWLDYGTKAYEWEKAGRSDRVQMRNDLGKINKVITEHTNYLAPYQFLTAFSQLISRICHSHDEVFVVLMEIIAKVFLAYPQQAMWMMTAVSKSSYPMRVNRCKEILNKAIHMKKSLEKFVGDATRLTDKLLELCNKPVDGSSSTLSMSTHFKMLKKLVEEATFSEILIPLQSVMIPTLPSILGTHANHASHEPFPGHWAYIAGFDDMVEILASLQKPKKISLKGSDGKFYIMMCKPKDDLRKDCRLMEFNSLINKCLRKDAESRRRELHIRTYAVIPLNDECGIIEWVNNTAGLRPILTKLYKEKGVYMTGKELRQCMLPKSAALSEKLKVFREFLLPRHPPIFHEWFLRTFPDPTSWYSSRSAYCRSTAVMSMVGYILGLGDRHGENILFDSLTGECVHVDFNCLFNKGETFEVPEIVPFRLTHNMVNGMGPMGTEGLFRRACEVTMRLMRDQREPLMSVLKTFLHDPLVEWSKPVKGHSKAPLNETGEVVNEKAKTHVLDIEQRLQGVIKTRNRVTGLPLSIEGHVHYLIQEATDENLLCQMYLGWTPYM

Ki [1] [nM] | SMILES | Cisplatin Sensitization Assay [2]
10 to 1000 | CN1CCN(CC2CCN(c3cnncc3NC(=O)c3c(N)nn4cc(F)cnc34)CC2)CC1 [I-B-11, 2-amino-6-fluoro-N-(5-(4-((4-methylpiperazin-1-yl)methyl)piperidin-1-yl)pyridazin-4-yl)pyrazolo[1,5-a]pyrimidine-3-carboxamide] | ++ (Compounds with a Cisplatin sensitization value >0.02 μM but <0.2 μM are marked with “++.”)
10 to 1000 | Nc1nn2cc(F)cnc2c1C(=O)Nc1cnncc1N1CCOCC1 [I-B-12, 2-amino-6-fluoro-N-(5-morpholinopyridazin-4-yl)pyrazolo[1,5-a]pyrimidine-3-carboxamide] | ++ (Compounds with a Cisplatin sensitization value >0.02 μM but <0.2 μM are marked with “++.”)
10 to 1000 | Cc1nncc(NC(=O)c2c(N)nn3cc(F)cnc23)c1N1CCC(C(=O)N2CCN(C)CC2)CC1 [I-B-14, 2-amino-6-fluoro-N-(6-methyl-5-(4-(4-methylpiperazine-1-carbonyl)piperidin-1-yl)pyridazin-4-yl)pyrazolo[1,5-a]pyrimidine-3-carboxamide] | +++ (Compounds with a Cisplatin sensitization value of <0.02 μM are marked with “+++.”)
10 to 1000 | Cn1cncc1-c1cnncc1NC(=O)c1c(N)nn2cc(F)cnc12 [I-B-15, 2-amino-6-fluoro-N-(5-(1-methyl-1H-imidazol-5-yl)pyridazin-4-yl)pyrazolo[1,5-a]pyrimidine-3-carboxamide] | ++ (Compounds with a Cisplatin sensitization value >0.02 μM but <0.2 μM are marked with “++.”)
10 to 1000 | Nc1nn2cc(F)cnc2c1C(=O)Nc1cnncc1N1CCC(F)CC1 [I-B-20, 2-amino-6-fluoro-N-(5-(4-fluoropiperidin-1-yl)pyridazin-4-yl)pyrazolo[1,5-a]pyrimidine-3-carboxamide] | +++ (Compounds with a Cisplatin sensitization value of <0.02 μM are marked with “+++.”)
10 to 1000 | Nc1nn2cc(F)cnc2c1C(=O)Nc1cnncc1N1CCC(C(=O)N2CC(F)(F)C2)CC1 [I-B-21, 2-amino-N-(5-(4-(3,3-difluoroazetidine-1-carbonyl)piperidin-1-yl)pyridazin-4-yl)-6-fluoropyrazolo[1,5-a]pyrimidine-3-carboxamide] | +++ (Compounds with a Cisplatin sensitization value of <0.02 μM are marked with “+++.”)
< 10 | Nc1nn2cc(F)cnc2c1C(=O)Nc1cnncc1N1CCC(C(=O)N2CC(F)C2)CC1 [I-B-22, 2-amino-6-fluoro-N-(5-(4-(3-fluoroazetidine-1-carbonyl)piperidin-1-yl)pyridazin-4-yl)pyrazolo[1,5-a]pyrimidine-3-carboxamide] | +++ (Compounds with a Cisplatin sensitization value of <0.02 μM are marked with “+++.”)
10 to 1000 | CS(=O)(=O)C1CCN(c2cnncc2NC(=O)c2c(N)nn3cc(F)cnc23)CC1 [I-B-23, 2-amino-6-fluoro-N-(5-(4-(methylsulfonyl)piperidin-1-yl)pyridazin-4-yl)pyrazolo[1,5-a]pyrimidine-3-carboxamide] | ++ (Compounds with a Cisplatin sensitization value >0.02 μM but <0.2 μM are marked with “++.”)
10 to 1000 | CN1CCN(c2cnccc2NC(=O)c2c(N)nn3cc(F)cnc23)CC1 [I-C-2, 2-amino-6-fluoro-N-(3-(4-methylpiperazin-1-yl)pyridin-4-yl)pyrazolo[1,5-a]pyrimidine-3-carboxamide] | ++ (Compounds with a Cisplatin sensitization value >0.02 μM but <0.2 μM are marked with “++.”)
10 to 1000 | CN1CCN(C(=O)C2CCN(c3cnccc3NC(=O)c3c(N)nn4cc(F)cnc34)CC2)CC1 [I-C-3, 2-amino-6-fluoro-N-(3-(4-(4-methylpiperazine-1-carbonyl)piperidin-1-yl)pyridin-4-yl)pyrazolo[1,5-a]pyrimidine-3-carboxamide] | ++ (Compounds with a Cisplatin sensitization value >0.02 μM but <0.2 μM are marked with “++.”)
10 to 1000 | Cc1ncccc1-c1cnccc1NC(=O)c1c(N)nn2cc(F)cnc12 [I-C-5, 2-amino-6-fluoro-N-(2′-methyl-[3,3′-bipyridin]-4-yl)pyrazolo[1,5-a]pyrimidine-3-carboxamide] | ++ (Compounds with a Cisplatin sensitization value >0.02 μM but <0.2 μM are marked with “++.”)
10 to 1000 | Cc1cnccc1-c1cnccc1NC(=O)c1c(N)nn2cc(F)cnc12 [I-C-6, 2-amino-6-fluoro-N-(3′-methyl-[3,4′-bipyridin]-4-yl)pyrazolo[1,5-a]pyrimidine-3-carboxamide] | ++ (Compounds with a Cisplatin sensitization value >0.02 μM but <0.2 μM are marked with “++.”)
10 to 1000 | Nc1nn2cc(F)cnc2c1C(=O)Nc1ccncc1N1CCC(C(=O)N2CCN3CCC2CC3)CC1 [I-C-7, N-(3-(4-(1,4-diazabicyclo[3.2.2]nonane-4-carbonyl)piperidin-1-yl)pyridin-4-yl)-2-amino-6-fluoropyrazolo[1,5-a]pyrimidine-3-carboxamide] | +++ (Compounds with a Cisplatin sensitization value of <0.02 μM are marked with “+++.”)
10 to 1000 | Nc1nn2cc(F)cnc2c1C(=O)Nc1ccncc1N1CCC(C(=O)N2CCC(N3CCCC3)CC2)CC1 [I-C-8, 2-amino-6-fluoro-N-(3-(4-(4-(pyrrolidin-1-yl)piperidine-1-carbonyl)piperidin-1-yl)pyridin-4-yl)pyrazolo[1,5-a]pyrimidine-3-carboxamide] | +++ (Compounds with a Cisplatin sensitization value of <0.02 μM are marked with “+++.”)
10 to 1000 | Nc1nn2cc(F)cnc2c1C(=O)Nc1ccncc1N1CCC(C(=O)N2CCN(C3COC3)CC2)CC1 [I-C-9, 2-amino-6-fluoro-N-(3-(4-(4-(oxetan-3-yl)piperazine-1-carbonyl)piperidin-1-yl)pyridin-4-yl)pyrazolo[1,5-a]pyrimidine-3-carboxamide] | ++ (Compounds with a Cisplatin sensitization value >0.02 μM but <0.2 μM are marked with “++.”)
< 10 | CS(=O)(=O)C1CCN(c2cnccc2NC(=O)c2c(N)nn3cc(F)cnc23)CC1 [I-C-10, 2-amino-6-fluoro-N-(3-(4-(methylsulfonyl)piperidin-1-yl)pyridin-4-yl)pyrazolo[1,5-a]pyrimidine-3-carboxamide] | +++ (Compounds with a Cisplatin sensitization value of <0.02 μM are marked with “+++.”)
10 to 1000 | Nc1nn2cc(F)cnc2c1C(=O)Nc1ccncc1N1CCCC1 [I-C-11, 2-amino-6-fluoro-N-(3-(pyrrolidin-1-yl)pyridin-4-yl)pyrazolo[1,5-a]pyrimidine-3-carboxamide] | ++ (Compounds with a Cisplatin sensitization value >0.02 μM but <0.2 μM are marked with “++.”)
< 10 | N#CCc1cnc2c(C(=O)Nc3cncn3Cc3ccccc3)c(N)nn2c1 [I-D-1, 2-amino-N-(1-benzyl-1H-imidazol-5-yl)-6-(cyanomethyl)pyrazolo[1,5-a]pyrimidine-3-carboxamide] | +++ (Compounds with a Cisplatin sensitization value of <0.02 μM are marked with “+++.”)
10 to 1000 | Nc1nn2cc(F)cnc2c1C(=O)Nc1cncn1-c1ccccc1 [I-D-2, 2-amino-6-fluoro-N-(1-phenyl-1H-imidazol-5-yl)pyrazolo[1,5-a]pyrimidine-3-carboxamide] | +++ (Compounds with a Cisplatin sensitization value of <0.02 μM are marked with “+++.”)
10 to 1000 | Nc1nn2cc(F)cnc2c1C(=O)Nc1cncn1C1CC1 [I-D-3, 2-amino-N-(1-cyclopropyl-1H-imidazol-5-yl)-6-fluoropyrazolo[1,5-a]pyrimidine-3-carboxamide] | +++ (Compounds with a Cisplatin sensitization value of <0.02 μM are marked with “+++.”)
10 to 1000 | Nc1nn2cc(F)cnc2c1C(=O)Nc1cncn1C1CCOCC1 [I-D-4, 2-amino-6-fluoro-N-(1-(tetrahydro-2H-pyran-4-yl)-1H-imidazol-5-yl)pyrazolo[1,5-a]pyrimidine-3-carboxamide] | ++ (Compounds with a Cisplatin sensitization value >0.02 μM but <0.2 μM are marked with “++.”)
